Laboratory results taken from ChEMBL document CHEMBL1201862, “PubChem BioAssay data set” (2004).
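Briefly, cells in 96-well plates were exposed to five compound concentrations for 48 h, and endpoints were estimated by linear interpolation. The concentration for 50% growth inhibition is given as GI50.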 Calls of active or inactive are those of the source. No stated cut-off is given here; in the data, active = GI50 up to about 1.1 µM and inactive = higher.

Legend:
Assay in all cases: growth of human tumour cells (NCI), 48 h
[1] = test system: MOLT-4
[2] = test system: MDA-MB-435
[3] = test system: CCRF-CEM
[4] = test system: PC-3
[5] = test system: MDA-MB-231
[6] = test system: SNB-19
[7] = test system: KM12
[8] = test system: SF-539
[9] = test system: SW-620
[10] = test system: Malme-3M
[11] = test system: U-251
[12] = test system: UACC-62
[13] = test system: NCI-H23
[14] = test system: EKVX
[15] = test system: OVCAR-8
[16] = test system: MCF7
[17] = test system: NCI-H522
[18] = test system: NCI-H460

Row | SMILES | GI50 [1] | GI50 [2] | GI50 [3] | GI50 [4] | GI50 [5] | GI50 [6] | GI50 [7] | GI50 [8] | GI50 [9] | GI50 [10] | GI50 [11] | GI50 [12] | GI50 [13] | GI50 [14] | GI50 [15] | GI50 [16] | GI50 [17] | GI50 [18]
1 | CCCCCC(=O)OCC(=O)[C@H]1[C@H](C)C[C@H]2[C@@H]3C[C@H](F)C4=C/C(=N/OC(=O)c5cccc6c(=O)c7ccccc7[nH]c56)C=C[C@]4(C)[C@H]3[C@@H](O)C[C@@]21C | 17.8 µM (inactive) | 23.8 µM (inactive) | 89.7 µM (inactive) | 20.3 µM (inactive) | 40.8 µM (inactive) | 37.3 µM (inactive) | 10.7 µM (inactive) | 23.9 µM (inactive) | 28.2 µM (inactive) | 12.5 µM (inactive) | 45.9 µM (inactive) | 16.7 µM (inactive) | 29.6 µM (inactive) | 25.5 µM (inactive) | 10.8 µM (inactive) | 21.9 µM (inactive) | 14.3 µM (inactive) | –
2 | CS(=O)(=O)Nc1ccc(Nc2ccnc3ccc4[nH]ccc4c23)cc1 | 3.13 µM (inactive) | 15.1 µM (inactive) | 4.35 µM (inactive) | 12.4 µM (inactive) | 8.93 µM (inactive) | 6.52 µM (inactive) | 11.6 µM (inactive) | – | 8.32 µM (inactive) | 3.88 µM (inactive) | 9.93 µM (inactive) | 14.3 µM (inactive) | 16.3 µM (inactive) | 24.8 µM (inactive) | 7.96 µM (inactive) | 4.89 µM (inactive) | 6.4 µM (inactive) | 15.2 µM (inactive)
3 | Cc1ncc([N+](=O)[O-])n1CCNS(=O)(=O)CCCn1ncnc1[N+](=O)[O-] | > 100 µM (inactive) | > 100 µM (inactive) | > 100 µM (inactive) | > 100 µM (inactive) | > 100 µM (inactive) | – | > 100 µM (inactive) | > 100 µM (inactive) | > 100 µM (inactive) | > 100 µM (inactive) | > 100 µM (inactive) | > 100 µM (inactive) | > 100 µM (inactive) | > 100 µM (inactive) | > 100 µM (inactive) | > 100 µM (inactive) | > 100 µM (inactive) | > 100 µM (inactive)
4 | [N-]=[N+]=CC(=O)OC(CCl)CCl | > 100 µM (inactive) | > 100 µM (inactive) | > 10 µM (inactive) | > 100 µM (inactive) | > 100 µM (inactive) | > 100 µM (inactive) | > 100 µM (inactive) | – | > 100 µM (inactive) | > 100 µM (inactive) | > 100 µM (inactive) | > 100 µM (inactive) | > 100 µM (inactive) | > 100 µM (inactive) | – | > 100 µM (inactive) | > 100 µM (inactive) | 25.2 µM (inactive)
5 | Oc1nc2c(c(-c3ccc(F)cc3)n1)COC/C2=C\c1ccc(F)cc1 | > 100 µM (inactive) | > 100 µM (inactive) | > 100 µM (inactive) | > 100 µM (inactive) | > 100 µM (inactive) | > 100 µM (inactive) | > 100 µM (inactive) | > 100 µM (inactive) | > 100 µM (inactive) | – | > 100 µM (inactive) | > 100 µM (inactive) | > 100 µM (inactive) | > 100 µM (inactive) | > 100 µM (inactive) | > 100 µM (inactive) | > 100 µM (inactive) | > 100 µM (inactive)
6 | CC(C)C(NC(=O)C(Cc1ccccc1)NC(=O)[C@H]1CCC[C@H]1NC(=O)C(Cc1ccc(OC(C)(C)C)cc1)NC(=O)OC(C)(C)C)C(N)=O (stereo not given in full) | 17.4 µM (inactive) | 17 µM (inactive) | 16.6 µM (inactive) | 17.8 µM (inactive) | 20.7 µM (inactive) | – | 21.9 µM (inactive) | 16.5 µM (inactive) | 20.9 µM (inactive) | > 10 µM (inactive) | 14.2 µM (inactive) | 13.8 µM (inactive) | 16.9 µM (inactive) | > 100 µM (inactive) | 16.6 µM (inactive) | 19.8 µM (inactive) | 14.9 µM (inactive) | 19.2 µM (inactive)
7 | CCOc1ccncc1[N+](=O)[O-] | > 100 µM (inactive) | > 100 µM (inactive) | > 100 µM (inactive) | > 100 µM (inactive) | > 100 µM (inactive) | > 100 µM (inactive) | > 100 µM (inactive) | > 100 µM (inactive) | > 100 µM (inactive) | > 100 µM (inactive) | > 100 µM (inactive) | > 100 µM (inactive) | > 100 µM (inactive) | > 100 µM (inactive) | > 100 µM (inactive) | > 100 µM (inactive) | > 100 µM (inactive) | –
8 | CC(=O)OC1CC(O)CC2=CCC3C4CCC(C(C)(O)C(O)CC5COC(=O)C5C)C4(C)CCC3C21C (stereo not given) | > 25 µM (inactive) | > 25 µM (inactive) | 16.5 µM (inactive) | > 25 µM (inactive) | 13 µM (inactive) | > 25 µM (inactive) | > 25 µM (inactive) | > 25 µM (inactive) | > 25 µM (inactive) | – | > 25 µM (inactive) | 21.4 µM (inactive) | > 25 µM (inactive) | 8.89 µM (inactive) | > 25 µM (inactive) | > 25 µM (inactive) | 12.8 µM (inactive) | > 25 µM (inactive)
9 | COC(=O)c1c(OC(C)=O)ccc2c1c1c(OC(C)=O)c3ccccc3c(OC(C)=O)c1n2Cc1cc(OC)cc(OC)c1 | 17.2 µM (inactive) | 6.64 µM (inactive) | 6.76 µM (inactive) | 4.66 µM (inactive) | 16.3 µM (inactive) | 9.2 µM (inactive) | 2.79 µM (inactive) | 3.09 µM (inactive) | – | 12 µM (inactive) | 5.5 µM (inactive) | 4.41 µM (inactive) | 9.91 µM (inactive) | 2.58 µM (inactive) | 4.93 µM (inactive) | 26.1 µM (inactive) | 3.06 µM (inactive) | 3.53 µM (inactive)
10 | O=C1Nc2ccccc2/C1=N/NC(=O)C(O)(c1ccccc1)c1ccccc1 | 15.2 µM (inactive) | 17 µM (inactive) | 26.1 µM (inactive) | 16.6 µM (inactive) | 18.1 µM (inactive) | 16.7 µM (inactive) | 17.4 µM (inactive) | 15.8 µM (inactive) | 17.1 µM (inactive) | 20.7 µM (inactive) | 18.2 µM (inactive) | 15.8 µM (inactive) | 16.1 µM (inactive) | 30.5 µM (inactive) | 24.7 µM (inactive) | 22.4 µM (inactive) | – | 17.2 µM (inactive)
11 | O=CNc1ccc2c(c1)C(=O)c1ccccc1-2 | 44.7 µM (inactive) | > 100 µM (inactive) | 41.2 µM (inactive) | 68.2 µM (inactive) | > 100 µM (inactive) | > 100 µM (inactive) | 68.2 µM (inactive) | 75.5 µM (inactive) | 49.3 µM (inactive) | – | 65 µM (inactive) | 49.9 µM (inactive) | > 100 µM (inactive) | 4.69 µM (inactive) | 50.9 µM (inactive) | 20.8 µM (inactive) | 60.3 µM (inactive) | 46 µM (inactive)
12 | Cc1nc2cc([N+](=O)[O-])ccc2c(NCCCN(C)C)c1C | 1.91 µM (inactive) | 15.6 µM (inactive) | 28.9 µM (inactive) | 4.71 µM (inactive) | 3.34 µM (inactive) | – | 6.05 µM (inactive) | 13.7 µM (inactive) | 5.3 µM (inactive) | 6.22 µM (inactive) | 18.8 µM (inactive) | 15.6 µM (inactive) | 4.03 µM (inactive) | – | 11.5 µM (inactive) | 2.94 µM (inactive) | 3.61 µM (inactive) | 3.18 µM (inactive)
13 | CC(=O)Nc1ccc(COC(O)CN2CCCCC2)cc1[N+](=O)[O-] (stereo not given) | > 100 µM (inactive) | > 100 µM (inactive) | > 100 µM (inactive) | > 100 µM (inactive) | > 100 µM (inactive) | > 100 µM (inactive) | > 100 µM (inactive) | > 100 µM (inactive) | > 100 µM (inactive) | > 100 µM (inactive) | > 100 µM (inactive) | > 100 µM (inactive) | > 100 µM (inactive) | – | > 100 µM (inactive) | > 100 µM (inactive) | > 100 µM (inactive) | > 100 µM (inactive)
14 | CN(C(=O)OC(C)(C)C)[C@H]1CCCC[C@H]1N1CCCC1 | > 100 µM (inactive) | > 100 µM (inactive) | 0.0129 µM (active) | > 100 µM (inactive) | > 100 µM (inactive) | > 100 µM (inactive) | > 100 µM (inactive) | > 100 µM (inactive) | > 100 µM (inactive) | > 100 µM (inactive) | > 100 µM (inactive) | > 100 µM (inactive) | > 100 µM (inactive) | > 100 µM (inactive) | > 100 µM (inactive) | > 100 µM (inactive) | > 100 µM (inactive) | –
15 | O=C1C(Cl)=C(NCCN2CCOCC2)C(=O)c2c(O)ccc(O)c21 | 1.54 µM (inactive) | 1.64 µM (inactive) | 1.56 µM (inactive) | 2.2 µM (inactive) | 2.39 µM (inactive) | 1.81 µM (inactive) | 3.23 µM (inactive) | 1.75 µM (inactive) | 1.33 µM (inactive) | 1.84 µM (inactive) | 2.21 µM (inactive) | 1.48 µM (inactive) | 1 µM (active) | 4.9 µM (inactive) | 3.25 µM (inactive) | 1.42 µM (inactive) | – | 1.58 µM (inactive)
16 | N#CCCN(CCC#N)c1ccc(C(=N/c2ccc(F)cc2)/N=N/c2ccccc2)cc1 | > 100 µM (inactive) | > 100 µM (inactive) | < 0.01 µM (active) | > 100 µM (inactive) | 82.6 µM (inactive) | > 100 µM (inactive) | 35.5 µM (inactive) | > 100 µM (inactive) | > 100 µM (inactive) | – | 50.9 µM (inactive) | > 100 µM (inactive) | 96.8 µM (inactive) | > 100 µM (inactive) | > 100 µM (inactive) | > 100 µM (inactive) | 21.7 µM (inactive) | 60.1 µM (inactive)
